Measured values from patent US8088410B2, “25-hydroxy Vitamin D3 compositions” (DSM IP Assets B.V., priority 2002, dated 2012).

Test: Premix stability: percent retention of 25-hydroxy Vitamin D3 in stored feed premixes (Example 7)
Type: physicochemical
Conditions: Basic and Vitamin Premixes, stored at 25° C. and 35° C. up to 3 months (FIGS. 6 and 7)
Procedure: Three premixes for use in animal feed were prepared having the following components in the following proportions by percent weight based on the total weight of the premix.
Each of these premix compositions was prepared using a microencapsulated oil of the present invention or a prior art beadlet containing 25-hydroxy Vitamin D3. In addition, a control formulation was prepared, in which Vitamin D3 was substituted for the 25-hydroxy Vitamin D3. Each of the premixes was stored at 25° C. and 35° C., for a length of time up to 3 months. The percent retention of the 25-hydroxy Vitamin D3 was determined at each time and temperature.

stability of 25-hydroxy Vitamin D3 (% retention) in premix: less than that of Vitamin D3
Structure (SMILES): C=C1CCC(O)C/C1=C/C=C1\CCCC2(C)C1CCC2C(C)CCCC(C)(C)O (stereo not shown) [25-hydroxy Vitamin D3]
